Measurements published in patent US11034663B2, “Tetrahydronaphtho[1,2-b]furan-2(3H)-one derivatives and preparation and uses thereof” (SHANGHAI QINGDONG BIOTECHNOLOGY CO., LTD., priority 2017, dated 2021).
“Also recorded” adds a separate entry of the source.

System: adjuvant-induced arthritis in rats
Assay: Therapeutic effect on adjuvant-induced arthritis in rats
Assay type: in vivo, Wistar male rats
Experimental: Wistar male rats, weighing 160-180 g, were raised in the SPF animal room of Shanghai University of Traditional Chinese Medicine, and employed for experiment following at least one week of culture, where the culture was performed at a temperature of 22+1° C. and a humidity of 55±5% under a 12-h light-dark cycle. The feed and water were sterilized and then freely taken by rats. All experiments were carried out in strict accordance with the relevant regulations for experimental animals.
Bacille Calmette-Guerin (BCG) H37Ra was purchased from Difco Co., Ltd. (US); and the YSL-7A Plethysmometer (paw volume) Meter was produced by the equipment station of Shandong Academy of Medical Sciences.
The establishment of the adjuvant-induced arthritis rat model and the administration therefor were described performed as follows. Liquid paraffin was sterilized at high temperature and pressure, added with a 10 mg/mL aqueous BCG solution and emulsified under repeated suction to produce a Freund's complete adjuvant (CFA) emulsion. In the experiment, individual rats were sensitized by intradermal injection of 0.1 mL of the CFA emulsion at the left hind paw to induce adjuvant arthritis in the limbs.
The grouping and administration were performed as follows. The male wistar rats were randomly divided into four groups according to weight each for 10 rats.
The rats in the blank control group were treated with 0.3% CMC solution daily by intragastric administration.
The rats in the arthritis solvent control group were similarly treated with 0.3% CMC solution daily by intragastric administration.
Rats from the two administration groups were respectively treated with 5 mg/kg and 20 mg/kg of compound 59 by oral administration once a day.
In addition to the blank control group, the rats in the other three groups were sensitized individually by […] injection of 0.1 mL of an adjuvant containing 10 mg/mL inactivated bacillus strain at the left hind foot pad. From the 10th day after the occurrence of arthritis, the rats in the administration groups were orally administered for therapeutic pharmacodynamic observation.
The therapeutic effect was monitored as follows. The rats were observed every day for the development of arthritis symptoms and weighed once every 2-3 days. A 5-level standard scoring system based on the clinical disease index was employed to evaluate the inflammation, where “0”: no redness and swelling; “1”: redness and swelling at the small toe joints; “2”: swelling at the toe joints and toes; “3”: swelling at feet below the ankle joint; and “4”: swelling at the entire feet including ankle joint. The two hind feet were measured for the volume to evaluate the swelling degree.

SMILES: Cc1cc(OCc2ccccc2Br)c(C)c2c1CC[C@H]1C(CN(C)C)C(=O)O[C@@H]21 (mixture of isomers) [Compound 59, (3R/S,3aS,9bR)-8-(2-bromobenzyloxy)-3-dimethylaminomethyl-6,9-dimethyl-3a, 4,5,9b-tetrahydronaphtho [1,2-b]furan-2(3H)-one]
- effect on weight of rats with adjuvant-induced arthritis (5 mg/kg and 20 mg/kg, oral, once a day, from the 10th day after occurrence of arthritis, FIG. 1): showed similar effect on the weight; also recorded: no significant effect on the weight loss
- disease index of arthritis (clinical disease index, 0-4 score) (5 mg/kg and 20 mg/kg, oral, once a day, compared to the model group, P<0.05, FIG. 2): significantly lowered
- secondary foot lesions (foot swelling, opposite side) (5 mg/kg and 20 mg/kg, oral, once a day, compared to the model group, P<0.05, FIG. 3): significantly inhibited; also recorded: alleviating
- primary foot lesions (foot swelling, sensitization side) (5 mg/kg and 20 mg/kg, oral, once a day, compared to the model group, P<0.05, FIG. 4): significantly inhibited; also recorded: alleviating
- overall therapeutic effect on adjuvant-induced arthritis in rats (daily oral administration): remarkable therapeutic effect
